Where two headings read alike, the source gives them in different places.
Columns and labels:
[1] = molecular target: T1, PI3K α (Homo sapiens, UniProt P42336); assay: In vitro PI3 kinase enzyme assay (alpha), ATP loss, bioluminescence; assay type: biochemical; settings: read-out: PI3Kα ATP loss IC50;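 also: purified p110α/p85 heterodimer acting on PtdIns(4,5)P2 at room temperature, remaining ATP read by luminescence, inhibition scaled between compound-free wells with and without enzyme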
T1 construct: Full length p110 subunits of PI3K α, β and δ, N-terminally labeled with polyHis tag; polyHis (N); made in house; host or cells: Sf9 insect cells (baculovirus)

[2] = molecular target: T2, PI3K β (Homo sapiens, UniProt P42338); assay: In vitro PI3 kinase enzyme assay (beta), ATP loss, bioluminescence; assay type: biochemical; settings: read-out: PI3Kβ ATP loss IC50;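 also: purified p110β/p85 heterodimer with PtdIns(4,5)P2 as acceptor, incubated at room temperature, leftover ATP read by luminescence, inhibition scaled to compound-free wells with and without enzyme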
T2 construct: Full length p110 subunits of PI3K α, β and δ, N-terminally labeled with polyHis tag; polyHis (N); made in house; host or cells: Sf9 insect cells (baculovirus)
Experimental: Full length p110 subunits of PI3K α, β and δ, N-terminally labeled with polyHis tag, were co-expressed with p85 in baculovirus expression vectors in sf9 insect cells. P110/p85 heterodimers were purified by sequential Ni-NTA, Q-HP, and Superdex-100 chromatography. Purified α, β and δ isozymes were stored at −20° C. in 20 mM Tris, pH 8, 0.2M NaCl, 50% glycerol, 5 mM DTT, 2 mM Na cholate.
PI3K enzyme assays (alpha, beta, delta and gamma) were performed in 25 mL with the above final concentrations of components in white polypropylene plates (Costar catalogue #3355). Phosphatidyl inositol phosphoacceptor, PtdIns(4,5)P2 (eg. P4508) was obtained from Echelon Biosciences. The ATPase activity of the alpha and gamma isozymes was not greatly stimulated by PtdIns(4,5)P2 under these conditions and was therefore omitted from the assay of these isozymes. Test compounds were dissolved in DMSO and diluted with three-fold serial dilutions. The compound in DMSO (1 μL) was added per test well, and the inhibition relative to reactions containing no compound, with and without enzyme was determined. After assay incubation at RT, the reaction was stopped and residual ATP determined by addition of an equal volume of a commercial ATP bioluminescence kit (Perkin Elmer EasyLite) according to the manufacturer's instructions, and detected using an Analyst GT luminometer.

[3] = system: phosphorylation of Serine 473 in Akt, HCT 116 human colon carcinoma cells; assay: Cell-based phospho-AKT Ser473 assay (MSD sandwich immunoassay, IGF-1 stimulated); settings: Homo sapiens
Summary of the method: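 HCT116 cells, 16,000/well and plated overnight, were pre-treated with serially diluted compound for 2 h at 37 °C, then stimulated with IGF-1 at 100 ng/ml for 15 min. Lysates were assayed for Akt pSer473 by MSD sandwich electrochemiluminescence, and IC50 was derived from dose-response data.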

[4] = HCT-116, HCT 116 cells, read-out: HCT 116 pAKT IC50

T2 sequence (P42338 whole entry): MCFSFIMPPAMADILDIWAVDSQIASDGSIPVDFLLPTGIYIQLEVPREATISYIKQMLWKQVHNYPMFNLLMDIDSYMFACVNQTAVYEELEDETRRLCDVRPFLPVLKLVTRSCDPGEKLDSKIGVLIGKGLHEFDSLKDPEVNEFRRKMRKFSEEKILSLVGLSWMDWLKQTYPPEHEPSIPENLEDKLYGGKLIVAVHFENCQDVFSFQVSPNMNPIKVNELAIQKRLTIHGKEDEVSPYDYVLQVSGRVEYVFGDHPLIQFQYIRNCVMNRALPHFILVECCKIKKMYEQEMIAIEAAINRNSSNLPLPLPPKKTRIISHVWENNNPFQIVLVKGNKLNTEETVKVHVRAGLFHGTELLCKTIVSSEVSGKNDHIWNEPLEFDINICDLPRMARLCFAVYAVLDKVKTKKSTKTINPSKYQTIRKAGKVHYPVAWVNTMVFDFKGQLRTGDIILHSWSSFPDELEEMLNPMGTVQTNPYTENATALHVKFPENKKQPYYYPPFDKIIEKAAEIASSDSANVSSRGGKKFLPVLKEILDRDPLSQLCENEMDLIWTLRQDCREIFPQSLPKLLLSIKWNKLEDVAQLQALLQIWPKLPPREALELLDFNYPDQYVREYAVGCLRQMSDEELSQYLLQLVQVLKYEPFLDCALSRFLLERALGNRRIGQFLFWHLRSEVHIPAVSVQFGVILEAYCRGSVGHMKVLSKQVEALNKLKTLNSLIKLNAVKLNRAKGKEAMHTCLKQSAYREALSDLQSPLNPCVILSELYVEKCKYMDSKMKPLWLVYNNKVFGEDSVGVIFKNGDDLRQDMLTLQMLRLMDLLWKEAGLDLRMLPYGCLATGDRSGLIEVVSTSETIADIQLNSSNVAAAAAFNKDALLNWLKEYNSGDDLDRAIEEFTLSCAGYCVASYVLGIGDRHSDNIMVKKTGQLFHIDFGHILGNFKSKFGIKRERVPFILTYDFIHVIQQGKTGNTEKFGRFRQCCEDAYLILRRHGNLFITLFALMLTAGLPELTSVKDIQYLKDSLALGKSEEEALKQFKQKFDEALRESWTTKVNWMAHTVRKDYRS
T2 sequence (P27986 whole entry partner): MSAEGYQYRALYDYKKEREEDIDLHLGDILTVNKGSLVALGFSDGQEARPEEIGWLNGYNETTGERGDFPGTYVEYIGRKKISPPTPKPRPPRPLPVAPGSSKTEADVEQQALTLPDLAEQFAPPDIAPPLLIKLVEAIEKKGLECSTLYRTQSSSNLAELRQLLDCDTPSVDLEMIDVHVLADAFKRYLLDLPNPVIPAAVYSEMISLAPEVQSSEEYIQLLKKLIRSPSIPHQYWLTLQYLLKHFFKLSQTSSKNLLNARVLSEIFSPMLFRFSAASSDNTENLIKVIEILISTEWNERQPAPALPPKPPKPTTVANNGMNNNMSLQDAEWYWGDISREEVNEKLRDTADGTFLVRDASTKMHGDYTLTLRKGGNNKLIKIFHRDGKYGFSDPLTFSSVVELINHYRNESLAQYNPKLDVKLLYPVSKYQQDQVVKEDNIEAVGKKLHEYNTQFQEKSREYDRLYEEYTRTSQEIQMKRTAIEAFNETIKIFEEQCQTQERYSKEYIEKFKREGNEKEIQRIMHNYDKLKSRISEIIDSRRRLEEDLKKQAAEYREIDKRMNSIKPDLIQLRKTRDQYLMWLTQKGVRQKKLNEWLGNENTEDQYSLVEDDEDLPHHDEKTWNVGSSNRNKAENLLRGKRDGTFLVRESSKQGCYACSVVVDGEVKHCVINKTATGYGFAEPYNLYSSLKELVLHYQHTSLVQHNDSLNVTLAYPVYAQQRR
T1 sequence (P42336 whole entry, species assumed): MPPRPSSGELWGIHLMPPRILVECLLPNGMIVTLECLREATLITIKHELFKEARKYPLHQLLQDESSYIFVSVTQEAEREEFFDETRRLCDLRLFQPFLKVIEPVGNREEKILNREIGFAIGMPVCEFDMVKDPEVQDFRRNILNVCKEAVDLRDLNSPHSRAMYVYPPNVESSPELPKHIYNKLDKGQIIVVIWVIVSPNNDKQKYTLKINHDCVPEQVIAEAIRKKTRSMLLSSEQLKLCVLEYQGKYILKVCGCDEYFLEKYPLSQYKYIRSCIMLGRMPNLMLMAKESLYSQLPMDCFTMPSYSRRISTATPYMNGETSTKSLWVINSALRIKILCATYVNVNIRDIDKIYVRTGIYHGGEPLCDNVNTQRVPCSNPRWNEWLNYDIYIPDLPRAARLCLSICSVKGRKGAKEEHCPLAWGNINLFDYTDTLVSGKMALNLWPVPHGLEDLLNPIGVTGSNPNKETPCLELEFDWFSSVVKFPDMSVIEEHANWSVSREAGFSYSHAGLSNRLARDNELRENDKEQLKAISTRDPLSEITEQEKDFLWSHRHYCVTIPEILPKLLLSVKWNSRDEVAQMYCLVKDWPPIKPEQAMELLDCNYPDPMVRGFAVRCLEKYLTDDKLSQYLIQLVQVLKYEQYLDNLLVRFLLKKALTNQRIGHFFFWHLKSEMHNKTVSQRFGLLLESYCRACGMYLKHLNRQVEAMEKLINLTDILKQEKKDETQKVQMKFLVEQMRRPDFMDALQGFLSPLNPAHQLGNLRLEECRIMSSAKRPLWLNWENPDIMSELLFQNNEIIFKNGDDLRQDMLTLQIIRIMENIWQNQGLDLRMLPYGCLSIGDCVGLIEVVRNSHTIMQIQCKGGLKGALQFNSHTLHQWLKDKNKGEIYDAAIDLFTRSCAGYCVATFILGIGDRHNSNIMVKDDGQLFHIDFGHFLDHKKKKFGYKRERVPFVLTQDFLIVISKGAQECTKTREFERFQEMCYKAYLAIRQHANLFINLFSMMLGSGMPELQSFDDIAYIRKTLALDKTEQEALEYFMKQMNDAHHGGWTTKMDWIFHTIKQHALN
T1 sequence (P27986 whole entry partner, species assumed): as the sequence (P27986 whole entry partner) above

Row | IC50 [1] [µM] | IC50 [2] [µM] | IC50 [3, 4] [µM] | Compound | IC50 ([3]; HCT-116, read-out: HCT 116 pAKT IC50) [µM]
1 | 0.0072 | 0.0123 | 0.0155 | CC(=O)Nc1nc2ccc(-c3cnc(Cl)c(NS(=O)(=O)c4ccc(O)cc4)c3)cc2s1 [Example 174, N-(6-(6-chloro-5-(4-hydroxyphenylsulfonamido)pyridin-3-yl)benzo[d]thiazol-2-yl)acetamide] | –
2 | 0.0032 | 0.0054 | 0.0117 | CC(=O)Nc1nc2ccc(-c3cnc(Cl)c(NS(=O)(=O)c4cc(Cl)cc(Cl)c4)c3)cc2s1 [Example 175, N-(6-(6-chloro-5-(3,5-dichlorophenylsulfonamido)pyridin-3-yl)benzo[d]thiazol-2-yl)acetamide] | –
3 | 0.0103 | 0.0124 | 0.0182 | CC(=O)Nc1nc2ccc(-c3cnc(Cl)c(NS(=O)(=O)c4cc(F)cc(F)c4)c3)cc2s1 [Example 176, N-(6-(6-chloro-5-(3,5-difluorophenylsulfonamido)pyridin-3-yl)benzo[d]thiazol-2-yl)acetamide] | –
4 | 0.0154 | 0.0349 | 0.0363 | CCCS(=O)(=O)Nc1cc(-c2ccc3nc(NC(C)=O)sc3c2)cnc1Cl [Example 177, N-(6-(6-chloro-5-(propylsulfonamido)pyridin-3-yl)benzo[d]thiazol-2-yl)acetamide] | –
5 | 0.0106 | 0.0199 | 0.0156 | CCCCS(=O)(=O)Nc1cc(-c2ccc3nc(NC(C)=O)sc3c2)cnc1Cl [Example 178, N-(6-(5-(butylsulfonamido)-6-chloropyridin-3-yl)benzo[d]thiazol-2-yl)acetamide] | –
6 | 0.0127 | 0.0307 | 0.0294 | CC(=O)Nc1nc2ccc(-c3cnc(Cl)c(NS(=O)(=O)C(C)C)c3)cc2s1 [Example 179, N-(6-(6-chloro-5-(propan-2-ylsulfonamido)pyridin-3-yl)benzo[d]thiazol-2-yl)acetamide] | –
7 | 0.006 | 0.006 | 0.0249 | CC(=O)Nc1nc2ccc(-c3cnc(Cl)c(NS(=O)(=O)c4ccc(OC(F)F)cc4)c3)cc2s1 [Example 182, N-(6-(6-chloro-5-(4-(difluoromethoxy)phenylsulfonamido)pyridin-3-yl)benzo[d]thiazol-2-yl)acetamide] | –
8 | 0.0072 | 0.0122 | 0.0065 | CC(=O)Nc1nc2ccc(-c3cnc(Cl)c(NS(=O)(=O)c4cccc(OC(F)F)c4)c3)cc2s1 [Example 184, N-(6-(6-chloro-5-(3-(difluoromethoxy)phenylsulfonamido)pyridin-3-yl)benzo[d]thiazol-2-yl)acetamide] | –
9 | 0.0066 | 0.0143 | 0.0156 | CC(=O)Nc1nc2ccc(-c3cnc(Cl)c(NS(=O)(=O)c4cccs4)c3)cc2s1 [Example 186, N-(6-(6-chloro-5-(thiophene-2-sulfonamido)pyridin-3-yl)benzo[d]thiazol-2-yl)acetamide] | –
10 | 0.0211 | 0.0421 | 0.0374 | CC(=O)Nc1nc2ccc(-c3cnc(Cl)c(NS(=O)(=O)c4ccsc4)c3)cc2s1 [Example 187, N-(6-(6-chloro-5-(thiophene-4-sulfonamido)pyridin-3-yl)benzo[d]thiazol-2-yl)acetamide] | –
11 | 0.0069 | 0.0254 | 0.11 | CC(=O)Nc1nc2ccc(-c3cnc(Cl)c(NS(=O)(=O)Cc4ccccc4)c3)cc2s1 [Example 188, N-(6-(6-chloro-5-(phenylmethylsulfonamido)pyridin-3-yl)benzo[d]thiazol-2-yl)acetamide] | –
12 | 0.0064 | 0.0077 | 0.0039 | CC(=O)Nc1nc2ccc(-c3cnc(Cl)c(NS(=O)(=O)c4ccc(C)cc4)c3)cc2s1 [Example 189, N-(6-(6-chloro-5-(4-methylphenylsulfonamido)pyridin-3-yl)benzo[d]thiazol-2-yl)acetamide] | –
13 | 0.0068 | 0.0096 | 0.0168 | CC(=O)Nc1nc2ccc(-c3cnc(Cl)c(NS(=O)(=O)c4ccc(Cl)s4)c3)cc2s1 [Example 193, N-(6-(6-chloro-5-(2-chlorothiophene-5-sulfonamido)pyridin-3-yl)benzo[d]thiazol-2-yl)acetamide] | –
14 | 0.0098 | 0.0255 | 0.0276 | CC(=O)Nc1nc2ccc(-c3cncc(NS(=O)(=O)c4ccc(C)cc4)c3)cc2s1 [Example 194, N-(6-(5-(4-methylphenylsulfonamido)pyridin-3-yl)benzo[d]thiazol-2-yl)acetamide] | –
15 | 0.0067 | 0.0157 | 0.123 | CC(=O)Nc1nc2ccc(-c3cncc(NS(=O)(=O)c4ccc(C(F)(F)F)cc4)c3)cc2s1 [Example 196, N-(6-(5-(4-(trifluoromethyl)phenylsulfonamido)pyridin-3-yl)benzo[d]thiazol-2-yl)acetamide] | –
16 | 0.0094 | 0.0119 | 0.0798 | CC(=O)Nc1nc2ccc(-c3cncc(NS(=O)(=O)c4cccc(C(F)(F)F)c4)c3)cc2s1 [Example 197, N-(6-(5-(3-(trifluoromethyl)phenylsulfonamido)pyridin-3-yl)benzo[d]thiazol-2-yl)acetamide] | –
17 | 0.0053 | 0.0147 | 0.0404 | CC(=O)Nc1nc2ccc(-c3cncc(NS(=O)(=O)c4ccc(F)cc4)c3)cc2s1 [Example 198, N-(6-(5-(4-fluorophenylsulfonamido)pyridin-3-yl)benzo[d]thiazol-2-yl)acetamide] | –
18 | 0.0038 | 0.0103 | 0.075 | CC(=O)Nc1nc2ccc(-c3cncc(NS(=O)(=O)c4cccc(F)c4)c3)cc2s1 [Example 199, N-(6-(5-(3-fluorophenylsulfonamido)pyridin-3-yl)benzo[d]thiazol-2-yl)acetamide] | –
19 | 0.0056 | 0.0098 | 0.0357 | CC(=O)Nc1nc2ccc(-c3cncc(NS(=O)(=O)c4ccc(Cl)c(Cl)c4)c3)cc2s1 [Example 200, N-(6-(5-(3,4-dichlorophenylsulfonamido)pyridin-3-yl)benzo[d]thiazol-2-yl)acetamide] | –
20 | 0.0065 | 0.0111 | 0.117 | CC(=O)Nc1nc2ccc(-c3cncc(NS(=O)(=O)c4ccc(C(C)(C)C)cc4)c3)cc2s1 [Example 201, N-(6-(5-(4-tert-butylphenylsulfonamido)pyridin-3-yl)benzo[d]thiazol-2-yl)acetamide] | –
21 | 0.0056 | 0.0317 | 0.271 | CC(=O)Nc1nc2ccc(-c3cncc(NS(=O)(=O)c4ccccc4)c3)cc2s1 [Example 202, N-(6-(5-(phenylsulfonamido)pyridin-3-yl)benzo[d]thiazol-2-yl)acetamide] | –
22 | 0.0295 | 0.0872 | 0.0576 | CC(=O)Nc1nc2ccc(-c3ccnc(N(C)S(=O)(=O)c4ccc(C(C)(C)C)cc4)n3)cc2s1 [Example 205, N-(6-(2-(4-tert-butyl-N-methylphenylsulfonamido)pyrimidin-4-yl)benzo[d]thiazol-2-yl)acetamide] | –
23 | 0.177 | 0.194 | 0.381 | CC(=O)Nc1nc2ccc(-c3ccnc(N(C)S(=O)(=O)c4cccs4)n3)cc2s1 [Example 206, N-(6-(2-(N-methylthiophene-2-sulfonamido)pyrimidin-4-yl)benzo[d]thiazol-2-yl)acetamide] | –
24 | 0.0147 | 0.0391 | 0.0593 | CC(=O)Nc1nc2ccc(-c3ccnc(N(C)S(=O)(=O)c4ccc(C)c(C)c4)n3)cc2s1 [Example 210, N-(6-(2-(N,3,4-trimethylphenylsulfonamido)pyrimidin-4-yl)benzo[d]thiazol-2-yl)acetamide] | –
25 | 0.0722 | 0.0603 | 0.237 | CC(=O)Nc1nc2ccc(-c3ccnc(N(C)S(=O)(=O)c4ccc(C)cc4C)n3)cc2s1 [Example 212, N-(6-(2-(N,2,4-trimethylphenylsulfonamido)pyrimidin-4-yl)benzo[d]thiazol-2-yl)acetamide] | –
26 | 0.0913 | 0.119 | 0.0928 | CC(=O)Nc1nc2ccc(-c3ccnc(N(C)S(=O)(=O)c4ccc(C(F)(F)F)cc4)n3)cc2s1 [Example 213, N-(6-(2-(N-methyl-4-(trifluoromethyl)phenylsulfonamido)pyrimidin-4-yl)benzo[d]thiazol-2-yl)acetamide] | –
27 | 0.074 | 0.0862 | 0.256 | CC(=O)Nc1nc2ccc(-c3ccnc(N(C)S(=O)(=O)c4ccc5ccccc5c4)n3)cc2s1 [Example 214, N-(6-(2-(N-methylnaphthalene-2-sulfonamido)pyrimidin-4-yl)benzo[d]thiazol-2-yl)acetamide] | –
28 | 0.0351 | 0.12 | 0.0794 | CC(=O)Nc1nc2ccc(-c3ccnc(NS(=O)(=O)c4ccc(C)cc4)c3)cc2s1 [Example 216, N-(6-(2-(4-methylphenylsulfonamido)pyridin-4-yl)benzo[d]thiazol-2-yl)acetamide] | –
29 | 0.0792 | 2.1 | 0.32 | CC(=O)Nc1nc2ccc(-c3cncc(N(C)S(=O)(=O)c4ccc(Cl)c(Cl)c4)c3)cc2s1 [Example 221, N-(6-(5-(3,4-dichloro-N-methylphenylsulfonamido)pyridin-3-yl)benzo[d]thiazol-2-yl)acetamide] | –

Row | Compound | IC50 [1] [µM] | IC50 [2] [µM] | IC50 [3, 4] [µM] | IC50 ([3]; HCT-116, read-out: HCT 116 pAKT IC50) [µM]
30 | CC(=O)Nc1nc2ccc(-c3cnc(Cl)c(NS(=O)(=O)C4CCCCC4)c3)cc2s1 [Example 171, N-(6-(6-chloro-5-(cyclohexanesulfonamido)pyridin-3-yl)benzo[d]thiazol-2-yl)acetamide] | 0.0032 | 0.0263 | – | 0.0433

— patent US7928140B2, “Benzothiazole PI3 kinase modulators for cancer treatment” (Amgen Inc., priority 2007, dated 2011)
